# Data taken from patent US6512102B1, “Compositions and methods of diagnosis and treatment using casein kinase I” (Chiron Corporation, priority 1998, dated 2003).
# Test system: Lef-1 dependent transcription
# Assay: Lef-1 enhancer luciferase reporter assay in Cos cells
# Assay type: cell-based
# Conditions: GSK3 over-expressed / cotransfected
# Description: Combinations of Wnt-1, CKIε, CKI kinase dead variant (lys→arg 38) and Lef-1 were transfected into Cos cells with a luciferase gene driven by multiple copies of Lef enhancer elements. As an internal control of transfection efficiency, the β-galactosidase gene driven by the SV40 promoter was co-transfected in all samples. 24 hours after transfection, cells were lysed and the lysate was tested for luciferase activity. The luciferase activity was normalized with respect to β-galactosidase activity. […] Dorsoanterior index (DAI) grade numbers were assigned to the phenotypes of the embryos. A grade 5 embryo is normal; a grade 3 embryo is cyclopic (one eye); a grade 1 embryo has a tail fin and somites but no head (acephalic); and a grade 0 embryo has no dorsoanterior structures (Kao et al., 1988).
# The effect of CKI on Lef-1 dependent transcription in Cos mammalian cells was examined. A luciferase reporter gene driven by multiple copies of the Lef-I enhancer sequence was used. When only Wnt-I or lef-I or CKIε was transfected with the reporter construct, luciferase activity was induced only 2 to 3 fold (FIG. 1A). When Lef-1 was cotransfected with either Wnt-1 or CKIε, luciferase activity was induced 30 or 12 fold respectively.
# Luciferase reporter plasmid contains multiple Lef-I enhancer sites upstream of the fos basal promoter. […]
substance,measurement,value
GSK3: GSK3 over-expressed from cotransfected plasmid [reference compound],luciferase activity transduced by CKIε,inhibited the effect of CKI in promoting transcription
